Measurements as given in PubChem BioAssay (NCI).
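Each compound was tested at five concentrations against cells in 96-well plates for 48 hours. Definition used: TGI = concentration required for complete inhibition of growth.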

Tests used:
Test in all cases: growth of human tumour cells (NCI), 48 h
[1] = system: TK-10 renal
[2] = system: CAKI-1 renal
[3] = system: RXF 393 renal
[4] = system: OVCAR-5 ovarian
[5] = system: OVCAR-4 ovarian
[6] = system: MDA-MB-435
[7] = system: PC-3 prostate
[8] = system: SNB-19 CNS
[9] = system: HCC-2998 colon
[10] = system: K-562 leukemia
[11] = system: UACC-257 melanoma
[12] = system: LOX IMVI melanoma
[13] = system: UACC-62 melanoma
[14] = system: CCRF-CEM leukemia
[15] = system: SF-268 CNS
[16] = system: HOP-62 NSCLC
[17] = system: HS 578T breast
[18] = system: MOLT-4 leukemia
[19] = system: OVCAR-3 ovarian
[20] = system: SK-MEL-5 melanoma
[21] = system: DU-145 prostate
[22] = system: RPMI-8226 leukemia
[23] = system: 786-0 renal
[24] = system: SNB-75 CNS
[25] = system: SF-295 CNS
[26] = system: MDA-MB-231 breast
[27] = system: SK-MEL-2 melanoma
[28] = system: MCF7 breast
[29] = system: MDA-N
[30] = system: NCI-H23 lung
[31] = system: A498 renal
[32] = system: HOP-92 NSCLC
[33] = system: NCI-H460 lung
[34] = system: SR leukemia
[35] = system: SK-OV-3 ovarian
[36] = system: T-47D breast
[37] = system: ACHN renal
[38] = system: SF-539 CNS
[39] = system: A549 NSCLC
[40] = system: EKVX NSCLC
[41] = system: IGROV1 ovarian
[42] = system: SK-MEL-28 melanoma
[43] = system: HCT-116 colon
[44] = system: UO-31 renal
[45] = system: M14 melanoma
[46] = system: NCI-H522 lung
[47] = system: HL-60(TB) leukemia
[48] = system: SN12C renal
[49] = system: KM12 colon
[50] = system: HCT-15 colon
[51] = system: SW-620 colon
[52] = system: U251 CNS
[53] = system: MALME-3M melanoma
[54] = system: COLO 205 colon
[55] = system: OVCAR-8 ovarian
[56] = system: NCI/ADR-RES ovarian
[57] = system: NCI-H226 lung
[58] = system: HT29 colon

Measured: TGI

CCOC(=O)C(=CNC(=S)c1ccncc1)C(=O)OCC
> 100 µM: [1] | [2] | [3] | [4] | [5] | [6] | [7] | [8] | [9] | [10] | [11] | [12] | [13] | [14] | [15] | [16] | [17] | [18] | [19] | [20] | [21] | [22] | [23] | [24] | [25] | [26] | [27] | [28] | [29] | [30] | [31] | [32] | [33] | [34] | [35] | [36] | [37] | [38] | [39] | [40] | [41] | [42] | [43] | [44] | [45] | [46] | [47] | [48] | [49] | [50] | [51] | [52] | [53] | [54]

Nc1c(N2CCCCC2)c(=O)nc2[nH]/c(=C\c3ccco3)c(=O)n12
> 100 µM: [1] | [2] | [3] | [4] | [5] | [6] | [8] | [10] | [11] | [12] | [14] | [15] | [17] | [18] | [20] | [21] | [22] | [23] | [24] | [25] | [26] | [29] | [55] | [30] | [56] | [31] | [57] | [32] | [58] | [34] | [35] | [36] | [37] | [38] | [39] | [40] | [41] | [42] | [43] | [44] | [45] | [46] | [47] | [48] | [49] | [50] | [51] | [52] | [53] | [54]
